Experimental findings from a melting point compilation (Tetko et al.; mined from patent text by program, amines drawn as free bases though some values may be those of a salt) are described below.

Some results are limits rather than exact numbers.

As for `OC(CNC1CC1)c1cccc(Br)c1` (stereo unspecified), the melting point (as a rule, the temperature of the solid-liquid transition) lay within 69.5 to 70.4 °C.
To `CN1CC=C(c2c[nH]c3ccc(Oc4ccccn4)cc23)CC1` belongs 240 to 245 °C.
`O=C(O)CCNc1ccccc1CNC(=O)C1Cc2ccccc2N1S(=O)(=O)c1ccc(-c2ccc(F)cc2F)cc1` (stereo unspecified): the melting point fell in the range of 106 to 110 °C.
As to `COc1c(C)c(C)c(OC)c(CC/C(C)=C/CO)c1C`, the melting point turned out to be 46 °C.
The compound `O=C(C=Cc1cncc(F)c1)NCCCCN1CCN(C(c2ccccc2)c2ccccc2)CC1` gave a melting point of 128 to 129 °C.
For `COC(=O)C[C@H](O)C[C@H](O)C=Cc1c(-c2ccc(F)cc2)c(-c2ccccc2)c(C(=O)Nc2ccccc2)n1C(C)C`, the melting point fell in the range of 154 to 155 °C.
As to `COC(=O)Nc1cc2c(cn1)[nH]c1ccccc12`, the melting point was in the range of 180 to 182 °C.
With `CC(=O)n1ncc2c(OCC3CO3)cccc21` (stereo unspecified) the figure was 83 °C.
With `N#Cc1ccc(Cn2c(=O)sc3c(=O)[nH]c(N)nc32)cc1` the figure was greater than 320 °C; with `N#Cc1cccc(C(CC(=O)c2ccc(F)cc2)CC(=O)c2ccc(F)cc2)c1`, 120 to 123 °C; with `Cc1c(Cl)ccc2c1[nH]c1c(C(=O)NO)cccc12`, 200 °C.
`COc1cc(C)c(C(=O)c2c(Cl)cnc(Cl)c2Cl)c(OC)c1OC` had a melting point of 60 to 61 °C.
With `COc1ccc(CNc2nn(CC(=O)OC(C)(C)C)c(=O)c3ccc(C#N)cc23)cc1Cl` the figure was 174 to 175 °C; with `COc1ccc(NC(=O)c2ccccc2F)c(C(C)=O)c1OC`, 106 to 108 °C; with `Cc1nc(Cl)c(C#N)nc1C`, 83 to 85 °C.
Consider `c1coc(-c2nnc(Sc3cnccn3)o2)c1`, for which the melting point was 92 to 93 °C.
To `Nc1ncc(C(=O)Cl)cc1Cl` belongs greater than 250 °C; to `CCOC(=O)C1CCn2c(cc3cc(OC)ccc32)C1` (stereo unspecified), 104 to 105 °C; to `CC(C)NS(=O)(=O)c1ccc(S(N)(=O)=O)cc1`, 166 to 168 °C.
Compound `O=c1ccc(C(c2ccccc2)c2ccccc2)n[nH]1` displayed a melting point of 161 to 162 °C.
With `CSc1cccc(-c2nc(=O)c3ccccc3s2)n1` the figure was 207 to 208 °C; with `CCc1ccc2nc(N)nc(Nc3ccccc3C)c2c1`, 263 to 265 °C.
`Cc1cc(SCc2cc(-c3ccc(Cl)cc3)on2)ccc1OCC(=O)O` yielded a melting point of 79 to 80 °C.
As for `COC(=O)[C@H]1CC[C@@H](C(=O)O)CN1S(C)(=O)=O` (racemic), the melting point was in the range of 130 to 133 °C.
`CC(=O)OC1CSC(Oc2cnc(-c3ccncc3)c(F)c2)C(OC(C)=O)C1OC(C)=O` (stereo unspecified) had a melting point of 165 °C.
With `Cc1oc(-c2ccc(C(C)C)cc2)nc1CCOc1ccc(C[C@H](OCC(F)(F)F)C(=O)O)c2sccc12` the figure was 181 to 182 °C; with `CCOC(=O)[C@H](CSCc1ccccc1)NC(=O)C(C)(C)NC(=O)[C@@H](S)C(C)C`, 87 to 91 °C; with `CN(C)CC1CCCCN1C(=O)c1ccc(-c2[nH]nc3c2C(=O)c2c(NC(=O)NN4CCOCC4)cccc2-3)s1` (stereo unspecified), greater than 300 °C.
Consider `CC1Cc2cc(O)ccc2C2C(F)CC3(C)C(=O)CCC3C12` (stereo unspecified), for which the melting point was in the range of 185 to 186 °C.
`CC(C)COC(c1cc(Cl)cc([N+](=O)[O-])c1O)c1cc(Cl)cc([N+](=O)[O-])c1O` showed a melting point of 95 °C.
With `N#Cc1ccc(N2C(=O)N(CCCCO)C3(CCCCC3)C2=O)cc1C(F)(F)F` the figure was 145 °C.
With `CC(=O)c1nn(-c2c(Cl)cc(C(F)(F)F)cc2Cl)c(N)c1S(C)(=O)=O` the figure was 77 to 79 °C; with `CCCc1ccc(OC)c(-c2csc(NC(=O)NN3CCN(CCCN4CCOCC4)CC3)n2)c1`, 229 °C.
With `O=c1ccc(C(F)(F)F)cn1-c1ccc(NCCO)cc1Cl`, the melting point was 161 to 164 °C.
To `CC(O)(CNc1ccc(S(=O)(=O)c2ccccc2)cc1)C(F)(F)F` (stereo unspecified) belongs 145 to 146 °C; to `COC(=O)C1=Cc2cccc(C(F)F)c2OCC1`, 97 to 99 °C; to `CC(C)(C)c1cc(C=O)c(O)c(Br)c1Cl`, 92 to 94 °C.
To `CN(C)C(=O)Nc1ccc2c(c1)C(c1ccccc1F)=NCC(=O)N2C` belongs 97 °C; to `Cc1nc2c(N)cc(Br)cc2n1C`, 206 to 209 °C; to `C[C@@H](O[Si](C)(C)C(C)(C)C)[C@@H]1C(=O)N[C@@H]1S(=O)(=O)c1ccc([N+](=O)[O-])cc1[N+](=O)[O-]`, 148 to 149 °C.
`Cc1cc(C2=NOC(c3cc(Cl)cc(Cl)c3)(C(F)(F)F)C2)ccc1C(=O)NCC(F)(F)F` (stereo unspecified) had a melting point of 156 to 157 °C.
To `Cn1nc(-c2ccc(Cl)cc2F)cc1O` belongs 204 °C; to `O=C(Nc1ccc(F)c(CO)c1)c1ccccn1`, 99 to 122 °C; to `OC(c1ccc(Cl)cc1)(c1ccc(Cl)cc1)C1CCNCC1`, 184 to 188 °C.
With `CC(C)(C)COc1ccc(NC(=O)c2cccn2-c2ccc(F)cc2)cc1C#N` the figure was 181 to 182 °C; with `O=C(O)c1ccc2c(c1)C=C(Cn1ccnc1)CO2`, 258 to 259 °C.
To `Fc1ccc(C2(Cn3ncnc3S)OC2c2ccccc2Cl)cc1` (stereo unspecified) belongs 179 to 180 °C; to `Clc1ccc2c(c1)NCc1ccccc1O2`, 94 to 95 °C.
Turning to `OCc1ccc(-c2coc(-c3cn([C@H]4CN5CCC4CC5)nn3)c2)cc1`, the melting point turned out to be 202 °C.
To `N#Cc1nn(-c2c(Cl)cc(C(F)(F)F)cc2Cl)c(Cl)c1I` belongs 116 °C.
The compound `Nc1nc2c(s1)CC(CN1CC=C(c3ccccc3)CC1)CC2` (stereo unspecified) gave a melting point of 187 to 190 °C.
To `CC(=O)CN1CCc2c(c(=O)oc3cc(C)c(C)cc23)C1` belongs 136 to 138 °C; to `CC(=O)Nc1nc(Cl)c(NC=O)c(N[C@@H]2C=C[C@H](CO)C2)n1` (relative stereo), 194 to 195 °C.
With `N#Cc1cccc2c1NCC2` the figure was 66 to 67 °C; with `Cc1cc(C)cc(P(c2cc(C)cc(C)c2)c2cccc3c2-c2c(cccc2P(c2cc(C)cc(C)c2)c2cc(C)cc(C)c2)OCCCO3)c1`, 232 to 234 °C; with `Cc1nn(-c2ccc(C#N)c(Cl)c2)c(C)c1Cc1ccc(C(=O)N2CC(O)C2)cc1`, 115 to 117 °C.
`CCCCC1(O)C2=NCC3(CCCCC3)CN2c2ccccc21` (stereo unspecified) came in with a melting point of 192 to 195 °C.
With `CCOCc1nc2c(N(Cc3ccccc3)Cc3ccccc3)nc(Cl)c(C)c2n1N` the figure was 127 to 129 °C; with `Cc1cc(-c2ccc(C(F)(F)F)cc2)cc(-c2cccc(-c3cccc(S(=O)(=O)NC(=O)C(C)C)c3)n2)n1`, 190 °C.
In the case of `CCCc1nc2c(N)nc3cc(OCCCCCCNC(C)=O)ccc3c2n1CCCCNS(C)(=O)=O`, the melting point was 168 to 172 °C.
To `CC(C)c1ccccc1NN` belongs 206 to 210 °C; to `COCCNc1ccc(S(=O)(=O)Oc2ccc(N)c([N+](=O)[O-])c2)cc1`, 105 °C.
To `ClC(Cl)(Cl)SNc1nc(C(Cl)(Cl)Cl)ns1` belongs 180 °C; to `O=C(C=Cc1cccnc1)C=Cc1cccnc1`, 148 to 149 °C; to `CC1C=CCCC1C1OC(=O)NC1=O` (stereo unspecified), 97 to 103 °C.
With `C=C[C@H](Cc1ccccc1)NC(=O)OCc1ccccc1` the figure was 87 to 88 °C; with `CCOC(=O)C(=NO)c1c[nH]c2c(CC)cccc12`, 167 to 169 °C; with `O=S1(=O)c2ccccc2Oc2cc(F)ccc21`, 174 to 176 °C.
`CN(c1c(Cl)ccc2cc(C(=O)O)[nH]c12)S(=O)(=O)c1cccs1`: the melting point lay within 286 to 288 °C.
To `NC(=O)N1C(=O)C(C(=O)c2cc(Cl)cs2)c2nc(Cl)ccc21` (stereo unspecified) belongs greater than 250 °C.
In the case of `COc1ccc2c(c1)Cc1c(-c3cccs3)n[nH]c1-2`, the melting point fell in the range of 212 to 214 °C.
To `CCOC(=O)C(=NOC)c1noc(C(Cl)(Cl)Cl)n1` belongs 143 to 146 °C; to `CCOC(=O)c1c(CC)nn2ccc3oc(C)cc3c12`, 89 to 90 °C.
Turning to `O=c1oc2ccccc2c(O)c1CCOc1ccccc1`, the melting point was 157 to 159 °C.
With `COc1cc(OC)c(C(=O)C=CC(=O)O)cc1OC`, the melting point was in the range of 207 to 208 °C.
Consider `CC(C(=O)O)c1cccs1` (stereo unspecified), for which the melting point was 75 to 75.5 °C.
To `COc1ccc(-c2nc(N)ncc2-c2ccc(=O)[nH]n2)cc1` belongs 142 °C; to `CCOC(=O)C=Cc1ccc2c(c1)c1cc(C=CC(=O)OCC)ccc1n2CC`, 164 to 168 °C; to `Cn1cc2c(=O)n(-c3ccc(Cl)cc3)nc-2c2ccccc21`, 322 to 323 °C.
Consider `Cc1cc(C2=C(c3cc(C)sc3C)CCC=C2)c(C)s1`, for which the melting point lay within 55 to 57 °C.
To `O=C1C=C(N2CCCCC2)c2oc3ccccc3c2C1=O` belongs 151 to 156 °C; to `O=C(CCCCOc1ccccc1O)C(F)(F)F`, 51 to 52 °C.
With `CS(=O)(=O)Nc1ccc(N2CCN(Cc3ccc(-c4ccccc4)o3)CC2)cc1` the figure was 178 °C; with `CCOC(=O)c1c(Cn2cncn2)nc2sc3ncccc3c2c1-c1ccc(OC)c(OC)c1`, 180 to 182 °C.
With `Oc1cc(-c2ccco2)c2oc(-c3ccc(O)c(F)c3)nc2c1` the figure was 155 °C; with `CCCCCCCc1ccc(CCCC(N)(CO)CCO)cc1` (stereo unspecified), 68 to 71 °C.
In the case of `N#Cc1cccc(-c2cc(-c3ccc(C#N)cc3[N+](=O)[O-])no2)c1`, the melting point was 235 to 238 °C.
With `CS(=O)(=O)c1ccc(-c2nn(Cc3cccnc3)c(=O)cc2-c2ccc(Cl)cc2)cc1` the figure was 248 °C; with `COC(=O)[C@H]1OC(O)[C@H](OC(=O)C(C)C)[C@@H](OC(=O)C(C)C)[C@@H]1OC(=O)C(C)C` (stereo partly specified), 89 °C.
Compound `CCCC=Cn1c2ccccc2c2ccccc21` gave a melting point of 47 °C.
Turning to `CC(C)(C)c1ccc(/C=C/C(=O)Nc2ccccc2)cc1`, the melting point turned out to be 141 °C.
